# Where two headings read alike, the source gives them in different places.
# Tests used:
# [1] = system: abdominal cramps induced in the rat by acetic acid; test: Cramps induced with acetic acid (KOSTER test), analgesic activity, per os; type: in vivo, rat (male Wistar); settings: po, read-out: Acetic Acid Writhing, % inhibition (% decrease in the number of cramps compared with the control animals)
# Description: 1) Cramps induced with acetic acid
# Male Wistar rats randomly divided into groups of 5 (weight 150±10 g) receive the test products per os 30 minutes before the intraperitoneal injection of 1 cm^3 of 1% acetic acid.
# The number of cramps is counted during the 25 minutes which follow the injection.
# (§1) The percentage activity was evaluated for each compound (% decrease in the number of cramps in the treated animals compared with the control animals).
# [2] = system: cramps induced in the mouse by phenylbenzoquinone; test: Cramps induced with phenylbenzoquinone (SIEGMUND test), analgesic activity, per os; type: in vivo, mouse (male CD-1); settings: po, read-out: PBO Whrithing, % inhibition (% decrease in the number of cramps compared with the control animals)
# Description: 2) Cramps induced with phenylbenzoquinone
# Male CD-1 mice randomly divided into groups of 5 receive the test products per os 30 minutes before the intraperitoneal injection of 0.25 cm3 of a 0.01% solution of phenylbenzoquinone in a 95:5 mixture of water and ethanol.
# The number of cramps is counted between the 5th and the 15th minute after the injection of phenylbenzoquinone.
# as §1
# [3] = rat, 50 mg/kg per os, 30 minutes before acetic acid, 25 minutes count
# [4] = mouse, 50 mg/kg per os, 30 minutes before phenylbenzoquinone, count 5th to 15th minute
SMILES,inhibition at 50 mg/kg ([1]; Rattus norvegicus) [%],inhibition at 50 mg/kg ([2]; Mus musculus) [%],"inhibition at 50 mg/kg [1, 3] [%]","inhibition at 50 mg/kg [2, 4] [%]"
"CC(=O)Oc1ccccc1C(=O)O [Aspirin, reference compound]",56,62,–,–
"Cn1c(=O)oc2cc(C(=O)c3ccccc3)cnc21 [Example 5, 3-METHYL-6-BENZOYLOXAZOLO[4,5-b]PYRIDIN-2(3-ONE]",–,–,85,85
"O=C(c1ccccc1)c1cnc2[nH]c(=O)oc2c1 [Example 6, 6-BENZOYLOXAZOLO[4,5-b]PYRIDIN-2(3H)-ONE]",–,–,88,–
"CC(=O)c1cnc2c(c1)CC(=O)N2C [Example 13, 1,3-DIHYDRO-1-METHYL-5-ACETYL-2H-PYRROLO[2,3-b]PYRIDIN-2-ONE]",–,–,96,–
"Cn1c(=O)oc2cc(CN3CCN(c4ccccc4)CC3)cnc21 [Example 16, 3-METHYL-6-[(4-PHENYLPIPERAZIN-1-YL)METHYL]OXAZOLO[4,5-b]PYRIDIN-2(3H)-ONE]",–,–,98,57
"Cn1c(=O)oc2cc(CCCN3CCN(c4ccccc4)CC3)cnc21 [Example 20, 3-METHYL-6-[3-(4-PHENYLPIPERAZIN-1-YL)PROP-1-YL]OXAZOLO[4,5-b]PYRIDIN-2(3H)-ONE]",–,–,–,100
"Cn1c(=O)oc2cc(C(=O)CN3CCN(c4ccccc4)CC3)cnc21 [Example 22, 3-METHYL-6-[2-(4-PHENYLPIPERAZIN-1-YL)ACETYL]OXAZOLO[4,5-b]PYRIDIN-2(3H)-ONE]",–,–,97,53
"Cn1c(=O)oc2cc(C(O)CN3CCN(c4ccccc4)CC3)cnc21 (stereo not drawn) [Example 24, 3-METHYL-6-[2-(4-PHENYLPIPERAZIN-1-YL)-1-HYDROXYETHYL]OXAZOLO[4,5-b]PYRIDIN-2(3H)-ONE]",–,–,86,97
"CN1C(=O)Cc2cc(CN3CCN(c4ccccc4)CC3)cnc21 [Example 46, 1,3-DIHYDRO-5-(4-PHENYLPIPERAZIN-1-YLMETHYL)-1-METHYL-2H-PYRROLO[2,3-b]PYRIDIN-2-ONE]",–,–,–,67
"CN1C(=O)Cc2cc(C(=O)CN3CCN(c4ccccc4)CC3)cnc21 [Example 47, 1,3-DIHYDRO-5-[2-(4-PHENYLPIPERAZIN-1-YL)ACETYL)-1-METHYL-2H-PYRROLO[2,3-b]PYRIDIN-2-ONE]",–,–,–,90
